Several values for one entry are separate records, joined by “and”; a condition that tells them apart may be missing. Equal entries are not always repeated.
Tests used:
H1 (hr) [1] = target: T1, H1 (hr) (Homo sapiens, UniProt P35367); assay: H1 (hr) MDS binding assay; settings: Table 7A; Ki in nM
T1 construct: Novascreen, MDS, Cerep (assay providers)
Description: (§1) Binding assays were performed using various sleep-inducing agents and derivatives selected from those listed in Table 1 in competitive binding assays with known standards for the H1 histamine receptor, and the M1, M2, and M3 muscarinic receptors, alpha 1 and alpha 2 receptors, D1 and D2 receptors, 5HT2a, 5HT2b, 5HT2c, 5HT2c, and 5HT7 receptors.
(§2) The histamine H1 assays are described in Chang, et al., Heterogeneity of Histamine H1-Receptors: Species Variation in [^3H]Mepyramine Binding of Brain Membranes. Journal of Neurochemistry. 32: 1653-1663 (1979); Martinez-Mir, M. I., Pollard, H., Moreau, J., et al. Three Histamine Receptors (H1, H2, and H3) Visualized in the Brain of Human and Non-Human Primates. Brain Res. 526: 322-327 (1990); Haaksma, E. E. J., Leurs, R. and Timmerman, H. Histamine Receptors: Subclasses and Specific Ligands. Pharmac. Ther. 47: 73-104 (1990). The muscarinic assays are described in Buckley, N. J., Bonner, T. I., Buckley, C. M., and Brann, M. R. Antagonist Binding Properties of Five Cloned Muscarinic Receptors Expressed in CHO-K1 Cells. Mol. Pharmacol. 35: 469-476 (1989). The assays were performed according to the preceding articles, with the following modifications. Chemical reagents in the following were obtained from Sigma, St. Louis, Mo.

H1 (hr) [2] = target: T1, H1 (hr); assay: H1 (hr) Cerep binding assay; settings: Table 7A; Ki in nM
Description: as §1, §2

[3] = target: T2, human recombinant M1 expressed in CHO cells (Homo sapiens, UniProt P11229); assay: M1 muscarinic receptor binding assay; settings: Table 7A, first line of column M1 M2 M3
T2 construct: purchased PerkinElmer, Inc., Wellesley, Mass; host or cells: CHO cells
T2 sequence (P11229 1-460): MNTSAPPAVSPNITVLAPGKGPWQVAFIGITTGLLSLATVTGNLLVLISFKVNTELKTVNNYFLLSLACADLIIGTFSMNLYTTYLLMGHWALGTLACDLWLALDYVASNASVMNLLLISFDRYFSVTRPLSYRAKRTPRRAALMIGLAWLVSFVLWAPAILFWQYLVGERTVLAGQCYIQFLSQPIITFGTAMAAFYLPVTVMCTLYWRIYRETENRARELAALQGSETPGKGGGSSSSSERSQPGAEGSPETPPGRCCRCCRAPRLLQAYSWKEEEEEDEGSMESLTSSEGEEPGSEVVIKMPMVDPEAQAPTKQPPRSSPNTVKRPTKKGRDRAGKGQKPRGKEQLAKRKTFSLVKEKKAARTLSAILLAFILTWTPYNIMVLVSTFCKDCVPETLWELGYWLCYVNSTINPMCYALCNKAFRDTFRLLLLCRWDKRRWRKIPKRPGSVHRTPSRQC

[4] = target: T3, human recombinant M2 expressed in CHO cells (Homo sapiens, UniProt P08172); assay: M2 muscarinic receptor binding assay; settings: Table 7A, M1 M2 M3
T3 construct: purchased PerkinElmer, Inc., Wellesley, Mass; host or cells: CHO cells
T3 sequence (P08172 1-466): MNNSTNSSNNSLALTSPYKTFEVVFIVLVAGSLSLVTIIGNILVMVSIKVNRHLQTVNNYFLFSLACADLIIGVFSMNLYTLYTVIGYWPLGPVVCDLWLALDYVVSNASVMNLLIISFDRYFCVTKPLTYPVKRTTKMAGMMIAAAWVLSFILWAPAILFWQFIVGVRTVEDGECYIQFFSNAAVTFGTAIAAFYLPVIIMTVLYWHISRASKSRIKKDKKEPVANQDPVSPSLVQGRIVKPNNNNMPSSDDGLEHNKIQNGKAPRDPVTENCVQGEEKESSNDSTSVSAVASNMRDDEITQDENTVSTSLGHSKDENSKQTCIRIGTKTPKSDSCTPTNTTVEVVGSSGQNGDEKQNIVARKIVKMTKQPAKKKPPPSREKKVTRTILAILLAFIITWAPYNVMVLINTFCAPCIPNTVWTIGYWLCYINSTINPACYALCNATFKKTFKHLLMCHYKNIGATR

Alpha 1B (h) = target: T4, Alpha 1B (h) (Homo sapiens, UniProt P35368); assay: Alpha 1B (h) binding assay; settings: Table 7A; unit inferred
T4 sequence (P35368 1-520): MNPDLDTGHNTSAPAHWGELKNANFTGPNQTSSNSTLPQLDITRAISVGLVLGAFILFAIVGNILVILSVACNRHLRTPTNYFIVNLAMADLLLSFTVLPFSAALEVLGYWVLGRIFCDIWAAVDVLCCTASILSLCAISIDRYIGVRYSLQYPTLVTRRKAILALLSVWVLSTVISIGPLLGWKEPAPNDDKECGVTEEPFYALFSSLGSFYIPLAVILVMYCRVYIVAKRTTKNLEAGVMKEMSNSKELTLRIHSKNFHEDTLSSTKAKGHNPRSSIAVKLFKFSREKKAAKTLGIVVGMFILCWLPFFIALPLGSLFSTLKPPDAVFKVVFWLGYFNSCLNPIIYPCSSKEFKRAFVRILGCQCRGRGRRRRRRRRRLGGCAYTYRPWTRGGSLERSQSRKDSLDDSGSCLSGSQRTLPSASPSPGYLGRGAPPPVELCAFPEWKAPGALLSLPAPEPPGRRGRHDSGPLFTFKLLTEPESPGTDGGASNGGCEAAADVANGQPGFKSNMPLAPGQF
Description: as §1

5HT2a (rat) = 5HT2a (rat) (Rattus norvegicus, UniProt P14842); assay: 5HT2a (rat) binding assay; settings: Table 7A; unit inferred
5HT2a (h R) = 5HT2a (h R) (Homo sapiens, UniProt P28223); assay: 5HT2a (h R) binding assay; settings: Table 7B; unit inferred
Description: as §1
(§3) In vitro binding assays are used to determine 5HT2a binding. These binding assays measure the ability of benzisoxazole analogs to displace known standards from the 5HT2a, 5HT2b, 5HT2c, and 5HT7. A decrease in the binding of the compounds to the M1-M3 receptors, relative to the binding of the compound to the 5HT2a receptor, is an indication of the greater specificity of the compound for the 5HT2a receptor over the muscarinic receptor. […] 5HT2a binding is determined as described for example in British Journal of Pharmacology (1995) 115, 622-628.

5HT2b (h) = 5HT2b (h) (Homo sapiens, UniProt P41595); assay: 5HT2b (h) binding assay; settings: Table 7B; unit inferred
5HT7 (h) = 5HT7 (h) (Homo sapiens, UniProt P34969); assay: 5HT7 (h) binding assay; settings: Table 7B; unit inferred
Description: as §1, §3

D3 = D3 (Homo sapiens, UniProt P35462); assay: D3 binding; settings: Table 7A, printed in column D2 (h); unit inferred
Alpha 1 = Alpha 1 binding assay; settings: Table 7A; unit inferred
Description: as §1

Sequence of 5HT2a (rat) (P14842 whole entry): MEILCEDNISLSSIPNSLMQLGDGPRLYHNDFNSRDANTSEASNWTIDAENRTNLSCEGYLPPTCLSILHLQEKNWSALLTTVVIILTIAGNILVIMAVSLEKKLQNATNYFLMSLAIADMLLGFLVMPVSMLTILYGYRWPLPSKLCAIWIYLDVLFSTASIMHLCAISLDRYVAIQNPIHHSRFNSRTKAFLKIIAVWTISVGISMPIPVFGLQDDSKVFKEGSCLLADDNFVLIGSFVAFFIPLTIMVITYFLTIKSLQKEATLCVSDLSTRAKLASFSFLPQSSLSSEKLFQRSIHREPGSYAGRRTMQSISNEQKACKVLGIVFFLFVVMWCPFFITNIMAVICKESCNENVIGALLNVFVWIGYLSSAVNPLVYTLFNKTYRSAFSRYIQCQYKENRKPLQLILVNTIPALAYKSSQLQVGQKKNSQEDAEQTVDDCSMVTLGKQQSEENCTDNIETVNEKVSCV
T1 sequence (P35367 whole entry): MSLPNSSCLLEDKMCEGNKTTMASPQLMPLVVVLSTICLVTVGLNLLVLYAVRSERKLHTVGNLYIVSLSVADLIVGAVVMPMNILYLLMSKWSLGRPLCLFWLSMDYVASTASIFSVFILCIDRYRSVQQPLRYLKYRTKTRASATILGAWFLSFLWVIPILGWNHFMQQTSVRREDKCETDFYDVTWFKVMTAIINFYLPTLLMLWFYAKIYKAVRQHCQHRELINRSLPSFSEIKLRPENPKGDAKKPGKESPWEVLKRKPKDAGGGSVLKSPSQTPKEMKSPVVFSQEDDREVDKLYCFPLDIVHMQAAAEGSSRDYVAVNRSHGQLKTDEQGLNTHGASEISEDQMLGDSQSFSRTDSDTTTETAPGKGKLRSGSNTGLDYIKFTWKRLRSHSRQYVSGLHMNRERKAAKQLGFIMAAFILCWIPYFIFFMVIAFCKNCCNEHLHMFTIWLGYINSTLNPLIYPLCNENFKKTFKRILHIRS
Sequence of 5HT2b (h) (P41595 whole entry): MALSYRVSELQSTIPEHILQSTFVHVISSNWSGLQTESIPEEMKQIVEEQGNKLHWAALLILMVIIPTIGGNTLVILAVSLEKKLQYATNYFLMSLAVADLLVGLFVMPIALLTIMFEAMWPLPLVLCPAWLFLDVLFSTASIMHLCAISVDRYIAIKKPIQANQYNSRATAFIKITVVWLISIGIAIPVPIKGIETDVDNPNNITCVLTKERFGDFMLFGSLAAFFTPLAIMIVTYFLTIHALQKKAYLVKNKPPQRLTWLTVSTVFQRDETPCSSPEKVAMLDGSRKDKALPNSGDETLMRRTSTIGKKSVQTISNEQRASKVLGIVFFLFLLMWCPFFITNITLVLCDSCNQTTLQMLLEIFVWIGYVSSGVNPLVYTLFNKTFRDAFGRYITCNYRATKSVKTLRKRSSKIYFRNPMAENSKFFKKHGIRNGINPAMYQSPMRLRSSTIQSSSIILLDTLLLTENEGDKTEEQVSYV
Sequence of 5HT2a (h R) (P28223 whole entry): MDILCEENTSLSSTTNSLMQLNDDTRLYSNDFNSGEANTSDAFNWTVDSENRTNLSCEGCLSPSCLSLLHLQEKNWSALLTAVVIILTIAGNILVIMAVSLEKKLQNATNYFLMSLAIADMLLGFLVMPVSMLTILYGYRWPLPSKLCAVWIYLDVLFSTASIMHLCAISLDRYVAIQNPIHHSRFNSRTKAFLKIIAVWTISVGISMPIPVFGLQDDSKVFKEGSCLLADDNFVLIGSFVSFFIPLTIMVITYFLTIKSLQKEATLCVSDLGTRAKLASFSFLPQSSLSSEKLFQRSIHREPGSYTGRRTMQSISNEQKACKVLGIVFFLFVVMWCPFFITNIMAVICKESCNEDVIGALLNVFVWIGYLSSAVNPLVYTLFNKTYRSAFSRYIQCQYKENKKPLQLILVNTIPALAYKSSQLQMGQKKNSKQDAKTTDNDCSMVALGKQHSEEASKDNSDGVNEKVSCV
Sequence of D3 (P35462 whole entry): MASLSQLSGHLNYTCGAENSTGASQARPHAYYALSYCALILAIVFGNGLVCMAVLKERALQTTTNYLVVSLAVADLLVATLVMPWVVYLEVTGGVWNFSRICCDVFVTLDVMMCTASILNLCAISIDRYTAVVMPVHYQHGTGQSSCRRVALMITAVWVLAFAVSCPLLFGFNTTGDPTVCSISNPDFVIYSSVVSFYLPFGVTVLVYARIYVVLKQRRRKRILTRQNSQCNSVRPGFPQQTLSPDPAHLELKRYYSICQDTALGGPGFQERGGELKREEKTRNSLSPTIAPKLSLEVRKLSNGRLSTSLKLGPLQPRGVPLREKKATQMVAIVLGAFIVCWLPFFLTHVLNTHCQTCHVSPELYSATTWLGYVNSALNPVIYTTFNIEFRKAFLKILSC
Sequence of 5HT7 (h) (P34969 whole entry): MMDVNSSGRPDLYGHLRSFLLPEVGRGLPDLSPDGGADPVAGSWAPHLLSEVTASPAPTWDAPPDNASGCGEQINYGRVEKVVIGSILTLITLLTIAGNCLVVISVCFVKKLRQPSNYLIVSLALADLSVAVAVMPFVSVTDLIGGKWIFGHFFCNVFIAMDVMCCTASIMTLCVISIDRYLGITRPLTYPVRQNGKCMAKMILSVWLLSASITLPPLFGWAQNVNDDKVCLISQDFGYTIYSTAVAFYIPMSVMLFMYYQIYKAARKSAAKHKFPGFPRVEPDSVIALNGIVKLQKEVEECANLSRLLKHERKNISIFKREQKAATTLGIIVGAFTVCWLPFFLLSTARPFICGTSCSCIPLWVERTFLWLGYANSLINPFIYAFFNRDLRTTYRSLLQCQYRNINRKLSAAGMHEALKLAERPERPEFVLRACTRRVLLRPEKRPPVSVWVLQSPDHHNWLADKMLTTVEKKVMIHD

SMILES	Ki (H1 (hr) [1]) [nM]	Ki (H1 (hr) [2]) [nM]	Ki [3] [nM]	Ki [4] [nM]	Ki (Alpha 1B (h)) [nM]	Ki (5HT2a (rat)) [nM]	Ki (5HT2a (h R)) [nM]	Ki (5HT2b (h))	Ki (5HT7 (h)) [nM]	Ki (D3) [nM]	Ki (Alpha 1) [nM]
CCc1cc2c(s1)Nc1ccccc1N=C2N1CCN(CC(C)(C)C(=O)O)CC1 [Compound 90]	–	–	> 10000	> 10000	–	10.4	–	–	–	226	–
CC(C)c1cc2c(s1)Nc1ccccc1N=C2N1CCN(CC(C)(C)C(=O)O)CC1 [Compound 94]	–	–	> 10000	> 10000	–	8.2	–	–	–	–	–

The next lines start with the values.

Ki (H1 (hr) [1]) [nM]	Ki (H1 (hr) [2]) [nM]	Ki [3] [nM]	Ki [4] [nM]	Ki (Alpha 1B (h)) [nM]	Ki (5HT2a (rat)) [nM]	Ki (5HT2a (h R)) [nM]	Ki (5HT2b (h))	Ki (5HT7 (h)) [nM]	Ki (D3) [nM]	Ki (Alpha 1) [nM]	SMILES
44	210	> 10000	> 10000	2100	14.5	200	151 nM and 270 nM	4080	–	–	Cc1cc2c(s1)Nc1ccccc1N=C2N1CCN(CC(C)(C)C(=O)O)CC1 [Compound 46]
–	–	> 10000	> 10000	–	13.3	–	–	–	–	1960	Cc1cc2c(s1)Nc1ccccc1N=C2N1CCN(CC2(C(=O)O)CC2)CC1 [Compound 91]
–	–	> 10000	> 10000	–	60.7	–	–	–	–	2060	Cc1cc2c(s1)Nc1ccccc1N=C2N1CCN(CCC(=O)O)CC1 [Compound 92]
